# Tests used:
# Type in all cases: cell-based
# WT HIV-1 = experiment: single-round infectivity assay, WT HIV-1 IN vector; conditions: Human immunodeficiency virus 1, read-out: EC50 values WT, vector carrying WT HIV-1 IN, single round infection, n = 4; new compounds
# Method: (§1) Figure 2 Antiviral activities of the new compounds against RAL-resistant mutants. The EC50 values were determined using a vector that carries WT HIV-1 IN and the RAL-resistant mutants in a single round infection assay. […] Error bars represent the standard deviations of independent experiments, n = 4, performed in triplicate. The graph has a maximum value of 550 nM.
# (§2) WT and mutant HIV-1 viral vectors were used in single-round infectivity assays to determine the antiviral potencies (EC50 values) of the compounds and the effects of the mutants on the EC50 values as previously described.[30],[54] Single round infectivity measurements were determined as done previously.[38]
# (§3) The vector pNLNgoMIVR-ΔENV.LUC has been described previously.[26] To produce the new IN mutants used in this study, the IN open reading frame was removed from pNLNgoMIVR-ΔENV.LUC by digestion with KpnI and SalI, and the resulting fragment was inserted between the KpnI and SalI sites of pBluescript KS+. Using that construct as the wild-type template, we prepared the following HIV-1 IN mutants using the QuikChange II XL site directed mutagenesis kit (Agilent Technologies, Santa Clara, CA) protocol: N117A, N117H, P142A, P142H, P142S, Y143C, Y143H, S230R, R231G, and R231K. The following sense oligonucleotides were used with matching cognate antisense oligonucleotides (not shown) (Integrated DNA Technologies, Coralville, IA) in the mutagenesis: N117A, 5′-[…]-3′; N117H, 5′-[…]-3′; P142A, 5′-[…]-3′; P142H, 5′-[…]-3′; P142S, 5′-[…]-3′; Y143C, 5′- […]-3′; Y143H, 5′-[…]-3′; S230R, 5′- […]-3′; R231G, 5′-[…]-3′; R231K, 5′-[…]-3′.
# HIV-1 IN mutant Y143R = experiment: single-round infectivity assay, Y143R IN mutant
# Method: as §1, §2, §3
# HIV-1 IN mutant N155H = experiment: single-round infectivity assay, N155H IN mutant
# Method: as §1, §2, §3
# [1] = tested on: HIV-1 IN double mutant G140S/Q148H; experiment: single-round infectivity assay, G140S/Q148H IN double mutant
# Method: as §1, §2, §3
# HIV-1 IN mutant N117A = experiment: single-round infectivity assay, N117A IN mutant
# Method: (§4) The EC50 values were determined using a vector that carries the IN mutant in a single round infection assay. […] Error bars represent the standard deviations of independent experiments, n = 4, performed in triplicate.
# as §2, §3
# HIV-1 IN mutant N117H = experiment: single-round infectivity assay, N117H IN mutant
# Method: as §4, §2, §3
# HIV-1 IN mutant G118R = experiment: single-round infectivity assay, G118R IN mutant
# Method: as §4, §2, §3
# HIV-1 IN mutant S119R = experiment: single-round infectivity assay, S119R IN mutant
# Method: as §4, §2, §3
# HIV-1 IN mutant Y143C = experiment: single-round infectivity assay, Y143C IN mutant
# Method: as §4, with “Figure 4 Mutations in the β5-α3 loop affect the antiviral potencies of the new compounds. The” for “The”
# as §2, §3
# HIV-1 IN mutant Y143H = experiment: single-round infectivity assay, Y143H IN mutant
# Method: as §4, with “Figure 4 Mutations in the β5-α3 loop affect the antiviral potencies of the new compounds. The” for “The”
# as §2, §3
# HIV-1 IN mutant P142A = experiment: single-round infectivity assay, P142A IN mutant
# Method: as §4, with “Figure 4 Mutations in the β5-α3 loop affect the antiviral potencies of the new compounds. The” for “The”
# as §2, §3
# HIV-1 IN mutant P142H = experiment: single-round infectivity assay, P142H IN mutant
# Method: as §4
# Single round infectivity measurements were determined as done previously.[38]
# as §3
# HIV-1 IN mutant P142S = experiment: single-round infectivity assay, P142S IN mutant
# Method: as §4, with “Figure 4 Mutations in the β5-α3 loop affect the antiviral potencies of the new compounds. The” for “The”
# as §2, §3
# HIV-1 IN mutant S230R = experiment: single-round infectivity assay, S230R IN mutant
# Method: as §4, with “Figure 5 Antiviral potencies of the new compounds against IN with mutations in the […]. The” for “The”
# as §2, §3
# HIV-1 IN mutant R231G = experiment: single-round infectivity assay, R231G IN mutant
# Method: as §4, with “Figure 5 Antiviral potencies of the new compounds against IN with mutations in the […]. The” for “The”
# as §2, §3
# HIV-1 IN mutant R231K = experiment: single-round infectivity assay, R231K IN mutant
# Method: as §4, with “Figure 5 Antiviral potencies of the new compounds against IN with mutations in the […]. The” for “The”
# as §2, §3
# [2] = fold change in EC50, IN mutant versus WT HIV-1
compound,measurement,setting,value
"O=C(NCc1ccc(F)cc1F)c1c(O)c2c(CO)ccnc2n(O)c1=O [5j, N-(2,4-Difluorobenzyl)-1,4-dihydroxy-5-(hydroxymethyl)-2-oxo-1,2-dihydro-1,8-naphthyridine-3-carboxamide]",EC50,WT HIV-1,7.3 ± 0.6 nM
same,ratio of the EC50s (our compound relative to DTG) against Y143R,HIV-1 IN mutant Y143R; EC50 compound / EC50 DTG,0.6
same,EC50,"HIV-1 IN mutant Y143R; Human immunodeficiency virus 1, read-out: EC50 values Y143R",2.6 ± 0.4 nM
same,FC Y143R,HIV-1 IN mutant Y143R; [2],0.4
same,ratio of the EC50s (our compound relative to DTG) against N155H,HIV-1 IN mutant N155H; EC50 compound / EC50 DTG,4.1
same,EC50,"HIV-1 IN mutant N155H; Human immunodeficiency virus 1, read-out: EC50 values N155H",14.9 ± 3.6 nM
same,FC N155H,HIV-1 IN mutant N155H; [2],2.0
same,ratio of the EC50s (our compound relative to DTG) against G140S/Q148H,[1]; EC50 compound / EC50 DTG,2.5
same,EC50,"[1]; Human immunodeficiency virus 1, read-out: EC50 values G140S/Q148H",14.7 ± 1.1 nM
same,FC G140S/Q148H,[1]; [2],2.0
same,ratio of the EC50s (our compound relative to DTG) against N117A,HIV-1 IN mutant N117A; EC50 compound / EC50 DTG,26.8
same,EC50,"HIV-1 IN mutant N117A; Human immunodeficiency virus 1, read-out: EC50 values N117A",13.4 ± 1.5 nM
same,FC N117A,HIV-1 IN mutant N117A; [2],1.8
same,ratio of the EC50s (our compound relative to DTG) against N117H,HIV-1 IN mutant N117H; EC50 compound / EC50 DTG,1.4
same,EC50,"HIV-1 IN mutant N117H; Human immunodeficiency virus 1, read-out: EC50 values N117H",3.4 ± 0.4 nM
same,FC N117H,HIV-1 IN mutant N117H; [2],0.5
same,ratio of the EC50s (our compound relative to DTG) against G118R,HIV-1 IN mutant G118R; EC50 compound / EC50 DTG,2.3
same,EC50,"HIV-1 IN mutant G118R; Human immunodeficiency virus 1, read-out: EC50 values G118R",30 ± 5 nM
same,ratio of the EC50s (our compound relative to DTG) against S119R,HIV-1 IN mutant S119R; EC50 compound / EC50 DTG,3.0
same,EC50,"HIV-1 IN mutant S119R; Human immunodeficiency virus 1, read-out: EC50 values S119R",7 ± 0.2 nM
same,FC S119R,HIV-1 IN mutant S119R; [2],1.0
same,ratio of the EC50s (our compound relative to DTG) against Y143C,HIV-1 IN mutant Y143C; EC50 compound / EC50 DTG,1.7
same,EC50,"HIV-1 IN mutant Y143C; Human immunodeficiency virus 1, read-out: EC50 values Y143C, single round infection, n = 4",2.4 ± 0.1 nM
same,FC Y143C,HIV-1 IN mutant Y143C; [2],0.3
same,ratio of the EC50s (our compound relative to DTG) against Y143H,HIV-1 IN mutant Y143H; EC50 compound / EC50 DTG,1.2
same,EC50,"HIV-1 IN mutant Y143H; Human immunodeficiency virus 1, read-out: EC50 values Y143H, single round infection, n = 4",2.6 ± 0.2 nM
same,FC Y143H,HIV-1 IN mutant Y143H; [2],0.4
same,ratio of the EC50s (our compound relative to DTG) against P142A,HIV-1 IN mutant P142A; EC50 compound / EC50 DTG,1.9
same,EC50,"HIV-1 IN mutant P142A; Human immunodeficiency virus 1, read-out: EC50 values P142A",4.7 ± 0.1 nM
same,ratio of the EC50s (our compound relative to DTG) against P142H,HIV-1 IN mutant P142H; EC50 compound / EC50 DTG,1.3
same,EC50,"HIV-1 IN mutant P142H; Human immunodeficiency virus 1, read-out: EC50 values P142H",3.5 ± 0.1 nM
same,ratio of the EC50s (our compound relative to DTG) against P142S,HIV-1 IN mutant P142S; EC50 compound / EC50 DTG,1.6
same,EC50,"HIV-1 IN mutant P142S; Human immunodeficiency virus 1, read-out: EC50 values P142S",3.5 ± 0.5 nM
same,ratio of the EC50s (our compound relative to DTG) against S230R,HIV-1 IN mutant S230R; EC50 compound / EC50 DTG,1.7
same,EC50,"HIV-1 IN mutant S230R; Human immunodeficiency virus 1, read-out: EC50 values S230R",7.7 ± 1 nM
same,FC S230R,HIV-1 IN mutant S230R; [2],1.1
same,ratio of the EC50s (our compound relative to DTG) against R231G,HIV-1 IN mutant R231G; EC50 compound / EC50 DTG,1.8
same,EC50,"HIV-1 IN mutant R231G; Human immunodeficiency virus 1, read-out: EC50 values R231G",2.5 ± 0.6 nM
same,FC R231G,HIV-1 IN mutant R231G; [2],0.3
same,ratio of the EC50s (our compound relative to DTG) against R231K,HIV-1 IN mutant R231K; EC50 compound / EC50 DTG,1.4
same,EC50,"HIV-1 IN mutant R231K; Human immunodeficiency virus 1, read-out: EC50 values R231K, single round infection, n = 4",5.9 ± 0.2 nM
same,FC R231K,HIV-1 IN mutant R231K; [2],0.8

# — publication PMC8205226, “HIV-1 Integrase Inhibitors with Modifications That Affect Their Potencies against Drug Resistant Integrase Mutants” (ACS Infectious Diseases, 2021)
